# Assay results: patent publication US20160106747A1, “TREATING POSTOPERATIVE MECHANICAL STRESS WITH AN ECTOINE” (Bitop AG, priority 2008, published 2016)
# “Also recorded” adds a separate entry of the source.
# How the values were obtained:
# [1] = system: Small intestine segments of rats; assay: Cold ischemic storage (18 h, 4° C.) of rat small intestine segments in POLYSOL with or without ectoine, then in vitro reperfusion; settings: for LDH liberation: ectoine (5 mg/kg) added to POLYSOL, 18 h at 4° C.
# Protocol: Small intestine segments of rats were removed under standard conditions and immediately irrigated with a cold common salt solution and subsequently with a POLYSOL solution (supplied by Doorzand Medical Innovations, Amsterdam/NL). The small intestine segments removed were kept ischemically in 50 ml of nutrient solution at 4° C. for 18 hours; in half of these cases ectoine (5 mg/kg) was added to the POLYSOL solution. Following this storage time at 4° C. reperfusion of the small intestine segments took place in vitro at 37° C. using a modified KHB medium (5% Dextran 78, 0.95% KHB, 0.37 g/L CaCl2, 2 g/L glucose, 0.6 g/L dexamethasone, 70 mg/L atropine and 0.21% sodium bicarbonate). For oxygen supply purposes a mixture of 95% O2 and 5% CO2 was used. The partial pressure of the oxygen was constantly kept at more than 500 mm/hg. When reperfusion had been completed all tissue samples were deep-frozen at −80° C. in liquid nitrogen and examined to ascertain their condition, the lactate dehydrogenase (LDH) liberation and nitrite liberation as a measure of NO. Generally speaking, the formation of NOx is an indicator for (oxidative) stress to which a tissue sample is subjected.
# [2] = system: rats with TNBS-induced enteritis; assay: Enteritis induced in rats with trinitrobenzol sulfonic acid (TNBS), oral ectoine; format: in vivo
# Protocol: For the purpose of closer investigation an animal model involving rats was prepared to induce enteritis by administering 10 mg/kg of trinitrobenzol sulfonic acid in 50% ethanol using a light ether anesthesia. Lesions developed which were examined macroscopically four days later. Ectoine was administered orally in various doses (30 to 300 mg/kg) for one week before the rats were given TNBS and four days thereafter.
smiles,measurement,setting,value
"CC1=N[C@H](C(=O)O)CCN1 [ectoine, (4S)-2-methyl-1,4,5,6-tetrahydropyrimidine-4-carboxylic acid]",LDH liberation,[1]; after 15 min reperfusion,8.8+/−3.42 U/I
same,LDH liberation,[1]; after 30 min reperfusion,25.4+/−8.2 U/I
same,NOx− formation,[1]; ectoine-doped POLYSOL samples after reperfusion,0.325 ± 1.05 mmol/L
same,condition of the microvilli (microscopic examination),"[1]; tissue samples after 30-minute reperfusion, compared with samples in POLYSOL only",much better condition; also recorded: considerably improved condition of the microvilli
same,extent of the lesions (macroscopic examination),"[2]; TNBS 10 mg/kg in 50% ethanol, ectoine oral 30 to 300 mg/kg for one week before TNBS and four days thereafter, lesions examined four days later",capable of alleviating the extent of the lesions
same,histopathological examination of the large intestine,[2]; TNBS enteritis,protective effect of ectoine could be confirmed
same,glutathione level in the large intestine,"[2]; TNBS enteritis, oral ectoine",caused the glutathione level in the large intestine to go down
same,myeloperoxidase activity,"[2]; TNBS enteritis, oral ectoine",prevented changes of the myeloperoxidase activity
same,"level of mediators (IKAM-1, DNFα, IL-1β, IL-10, LTB4, PGE2)","[2]; in the blood and in the tissue of the large intestine, TNBS enteritis",prevented changes of the level of various mediators
same,dose giving the maximum effect on lesions,"[2]; oral, doses of 30 to 300 mg/kg tested",100 mg/kg
same,effect compared with reference active agent sulfasalazine,"[2]; sulfasalazine 300 mg/kg as reference, TNBS enteritis",comparable to that of sulfasalazine
